Reference: patent US8772199B2, “Herbicidal compositions for tolerant or resistant maize crops” (Bayer Intellectual Property GmbH, priority 1998, dated 2014)

Legend:
Assay type in all cases: in vivo
Sinapis arvensis = test: Field trial with maize, herbicidal action; settings: 15 g of a.s./ha; application 4- to 5-leaf stage; scoring 28 days after application
Description: (§1) Transgenic maize plants with a resistance to one or more herbicides (A) together with typical weed plants were grown in the open on 2×5 m plots under natural field conditions; alternatively, weed infestation occurred naturally when the maize plants were grown.
(§2) 2, 4, 6 and 8 weeks after the application, the herbicidal activity of the active substances or active substance mixtures was scored visually with reference to the treated plots in comparison to untreated control plots. The damage to, and the development of, all aerial parts of the plants was recorded. Scoring was done on the basis of a percentage sale (100% action=all plants destroyed; 50% action=50% of the plants and green parts of the plants destroyed; 0% action=no recognizable effect=like control plot. The mean of the score values of in each case 4 plots was calculated.

Convolvulus arvensis = test: Field trial with maize, herbicidal action; settings: application 3- to 4-leaf stage, scoring 28 days after application
Description: as §1, §2

[1] = tested on: Mais LL (Liberty-Link-Mais, maize tolerant or resistant to glufosinate-ammonium); test: Field trial, damage to transgenic maize (tolerance by crop plants)
Description: as §1
The damage to, and the development of, all aerial parts of the plants was recorded.
Abbreviations generally used in the tables: • g of a.s./ha=gram of active substance (100% active substance) per hectare • E^A=Total of the herbicidal effects of the individual applications • E^C Colby's expected value (cf. scoring in Table 1) • “Mais LL”=®Liberty-Link-Mais, maize which is tolerant or resistant to glufosinate-ammonium, […]

Euphorbia heterophylla = test: Field trial with maize, herbicidal action; settings: for Herbicidal action (%) against EPHHL: application 4-leaf stage, scoring 6 weeks after application; for Herbicidal action (%) against Euphorbia heterophylla: application 6-leaf stage, scoring 44 days after application
Description: as §1
(§3) […] The damage to, and the development of, all aerial parts of the plants was recorded. Scoring was done on the basis of a percentage sale (100% action=all plants destroyed; 50% action=50% of the plants and green parts of the plants destroyed; 0% action=no recognizable effect=like control plot. The mean of the score values of in each case 4 plots was calculated.

Commelina benghalensis = test: Field trial with maize, herbicidal action; settings: application 3-leaf stage, scoring 42 days after application
Description: as §1, §2

Portulaca oleracea = test: Field trial with maize, herbicidal action
Description: as §1, §3

Avena fatua = test: Field trial with maize, herbicidal action; settings: application 2- to 4-leaf stage, scoring 28 days after application
Description: as §1, §2

Brachiaria plantaginea = test: Field trial with maize, herbicidal action; settings: 1500 g of a.s./ha; application 2-leaf stage; scoring 28 days after application
Description: as §1, §2

Sorghum halepense = test: Field trial with maize, herbicidal action; settings: application 4-leaf stage, scoring 28 days after application
Description: as §1, §2

Lamium amplexicaule = test: Field trial with maize, herbicidal action; settings: application 1-leaf stage, scoring 17 days after application
Description: as §1, §3

Digitaria sanguinalis = test: Field trial with maize, herbicidal action; settings: 300 g of a.s./ha; application 5-6-leaf stage; scoring 11 days after application
Description: as §1, §3

Panicum dichotomiflorum = test: Field trial with maize, herbicidal action; settings: 300 g of a.s./ha; application 5-6-leaf stage; scoring 11 days after application
Description: as §1, §3

Fagopyrum esculentum = test: Field trial with maize, herbicidal action; settings: application 3- to 4-leaf stage, scoring 24 days after application
Description: as §1, §3

Galium aparine = test: Field trial with maize, herbicidal action; settings: application 3- to 4-leaf stage, scoring 24 days after application
Description: as §1, §3

Echinochloa crus-galli = test: Field trial with maize, herbicidal action
Description: as §1, §3

Sorghum bicolor = test: Field trial with maize, herbicidal action; settings: pre-emergence application, scoring 46 days after pre-emergence application
Description: as §1, §2

## COc1nc(C)nc(NC(=O)NS(=O)(=O)c2ccsc2C(=O)O)n1 [(B3.6), 3-[[[[(4-methoxy-6-methyl-1,3,5-triazin-2-yl)amino]carbonyl]amino]sulfonyl]-2-thiophenecarboxylic acid]
Sinapis arvensis
  Herbicidal action (%) against Sinapis arvensis: 73%

## O=C(O)COc1ccc(Cl)cc1Cl [(B3.3), 2,4-dichlorophenoxyacetic acid]
Convolvulus arvensis; 500 g of a.s./ha
  Herbicidal action (%) against Convolvulus arvensis: 20%

## CS(=O)(=O)c1ccc(C(=O)C2C(=O)CCCC2=O)c([N+](=O)[O-])c1 [(B1.16), 2-(4-mesyl-2-nitrobenzoyl)cyclohexane-1,3-dione]
[1]; 50 g of a.s./ha, application 4-leaf stage
  Damage to Mais LL in %: 0%
[1]; 100 g of a.s./ha, application 4-leaf stage
  Damage to Mais LL in %: 0%
[1]; 150 g of a.s./ha, application 4-leaf stage
  Damage to Mais LL in %: 0%
Euphorbia heterophylla; 50 g of a.s./ha
  Herbicidal action (%) against EPHHL: 60%
Euphorbia heterophylla; 100 g of a.s./ha
  Herbicidal action (%) against EPHHL: 58%
Euphorbia heterophylla; 150 g of a.s./ha
  Herbicidal action (%) against EPHHL: 70%

## CCc1cccc(CC)c1N(COC)C(=O)CCl [(B1.6), 2-chloro-N-(2,6-diethylphenyl)-N-(methoxymethyl)acetamide]
[1]; 1920 g of a.s./ha, application 3-leaf stage, Table 11, head names no quantity
  Mais LL: 0
Commelina benghalensis; 1920 g of a.s./ha
  Herbicidal action (%) against Commelina benghalensis: 37%

## CCc1cccc(C)c1N(C(=O)CCl)C(C)COC (stereo not shown) [(B1.5), 2-chloro-N-(2-ethyl-6-methylphenyl)-N-(2-methoxy-1-methylethyl)-acetamide]
Portulaca oleracea; 1680 g of a.s./ha, application 2- to 4-leaf stage, scoring 28 days after application
  Herbicidal action (%) against Portulaca oleracea: 35%
Avena fatua; 1680 g of a.s./ha
  Herbicidal action (%) against Avena fatua: 40%
Brachiaria plantaginea
  Herbicidal action (%) against Brachiaria plantaginea: 70%

## COCC(C)N(C(=O)CCl)c1c(C)csc1C (stereo not shown) [(B1.12), 2-chloro-N-(2,4-dimethyl-3-thienyl)-N-(2-methoxy-1-methylethyl)acetamide]
Convolvulus arvensis; 900 g of a.s./ha
  Herbicidal action (%) against Convolvulus arvensis: 30%

## Cc1cc(Cl)ccc1OCC(=O)O [(B3.9), (4-chloro-2-methylphenoxy)acetic acid]
Convolvulus arvensis; 500 g of a.s./ha
  Herbicidal action (%) against Convolvulus arvensis: 60%

## CCNc1nc(Cl)nc(NC(C)(C)C#N)n1 [(B1.1), 2-(4-chloro-6-ethylamino-1,3,5-triazin-2-ylamino)-2-methylpropionitrile]
Portulaca oleracea; 2242 g of a.s./ha, application 2- to 4-leaf stage, scoring 28 days after application
  Herbicidal action (%) against Portulaca oleracea: 45%
Avena fatua; 2242 g of a.s./ha
  Herbicidal action (%) against Avena fatua: 35%

## O=C(Nc1nc(OC(F)F)cc(OC(F)F)n1)NS(=O)(=O)c1ccccc1C(=O)O [(B1.11), 2-[4,6-bis(difluoromethoxy)pyrimidin-2-ylcarbamoylsulfamoyl]benzoic acid]
Sorghum halepense; 10 g of a.s./ha
  Herbicidal action (%) against Sorghum halepense: 62%
Sorghum halepense; 20 g of a.s./ha
  Herbicidal action (%) against Sorghum halepense: 93%

## O=C(O)CNCP(=O)(O)O [(A2.1), N-(phosphonomethyl)glycine]
Lamium amplexicaule; 400 g of a.s./ha
  Herbicidal action (%) against Lamium amplexicaule: 75%
Lamium amplexicaule; 600 g of a.s./ha
  Herbicidal action (%) against Lamium amplexicaule: 90%

## COc1c(Cl)ccc(Cl)c1C(=O)O [(B3.2), 3,6-dichloro-o-anisic acid]
[1]; in vivo
  Damage to Mais LL in %: 0%
Digitaria sanguinalis
  Herbicidal action (%) against Digitaria sanguinalis: 88%
Panicum dichotomiflorum
  Herbicidal action (%) against Panicum dichotomiflorum: 0%

## COc1nc(NC(=O)NS(=O)(=O)c2ccccc2C(F)(F)F)nc(C(F)(F)F)n1 [(B3.8), N-[[[4-methoxy-6-(trifluoromethyl)-1,3,5-triazin-2-yl)amino]-carbonyl]-2-(trifluoromethyl)benzenesulfonamide]
Fagopyrum esculentum; 15 g of a.s./ha
  Herbicidal action (%) against Fagopyrum esculentum: 30%
Fagopyrum esculentum; 30 g of a.s./ha
  Herbicidal action (%) against Fagopyrum esculentum: 60%
Fagopyrum esculentum; 60 g of a.s./ha
  Herbicidal action (%) against Fagopyrum esculentum: 78%
Galium aparine; 15 g of a.s./ha
  Herbicidal action (%) against Galium aparine: 45%
Galium aparine; 30 g of a.s./ha
  Herbicidal action (%) against Galium aparine: 65%
Galium aparine; 60 g of a.s./ha
  Herbicidal action (%) against Galium aparine: 85%

## O=C(O)c1nc(Cl)ccc1Cl [(B3.4), 3,6-dichloro-2-pyridinecarboxylic acid]
[1]; 100 g of a.s./ha, application 3-leaf stage, Table 14, head names no quantity
  Mais LL: 0
Echinochloa crus-galli; 100 g of a.s./ha, application 3-leaf stage, scoring 21 days after application
  Herbicidal action (%) against Echinochloa crus-galli: 15%

## CS(=O)(=O)c1ccc(C(=O)C2C(=O)CCCC2=O)c(Cl)c1 [(B1.14), 2-(2-chloro-4-mesylbenzoyl)cyclohexane-1,3-dione]
[1]; 200 g of a.s./ha, application 6-leaf stage
  Damage to Mais LL in %: 0%
[1]; 300 g of a.s./ha, application 6-leaf stage
  Damage to Mais LL in %: 0%
[1]; 400 g of a.s./ha, application 6-leaf stage
  Damage to Mais LL in %: 0%
Euphorbia heterophylla; 200 g of a.s./ha
  Herbicidal action (%) against Euphorbia heterophylla: 60%
Euphorbia heterophylla; 300 g of a.s./ha
  Herbicidal action (%) against Euphorbia heterophylla: 68%
Euphorbia heterophylla; 400 g of a.s./ha
  Herbicidal action (%) against Euphorbia heterophylla: 75%

## CS(=O)(=O)c1cc(C(F)(F)F)ccc1C(=O)c1cnoc1C1CC1 [(B2.5), (5-cyclopropyl-4-isoxazolyl)[2-(methylsulfonyl)-4-(trifluoromethyl)phenyl]-methasone]
Sorghum bicolor; 25 g of a.s./ha
  Herbicidal action (%) against Sorghum bicolor: 20%
Sorghum bicolor; 50 g of a.s./ha
  Herbicidal action (%) against Sorghum bicolor: 40%
Sorghum bicolor; 100 g of a.s./ha
  Herbicidal action (%) against Sorghum bicolor: 75%

## CCCCCCCCSC(=O)Oc1cc(Cl)nnc1-c1ccccc1 [(B2.2), 6-chloro-3-phenylpyridazin-4-yl S-octyl thiocarbonate]
Convolvulus arvensis; 900 g of a.s./ha
  Herbicidal action (%) against Convolvulus arvensis: 40%

## Cc1ccn2nc(S(=O)(=O)Nc3c(F)cccc3F)nc2n1 [(B2.8)]
Echinochloa crus-galli; 50 g of a.s./ha, application 3-leaf stage, scoring 21 days after application
  Herbicidal action (%) against Echinochloa crus-galli: 40%
Echinochloa crus-galli; 70 g of a.s./ha, application 3-leaf stage, scoring 21 days after application
  Herbicidal action (%) against Echinochloa crus-galli: 65%

## CCc1cnc(C2=NC(C)(C(C)C)C(=O)N2)c(C(=O)O)c1 (stereo not shown) [(A3.2), imazethapyr]
[1]; in vivo
  Mais LL: 0
Commelina benghalensis; 100 g of a.s./ha
  Herbicidal action (%) against Commelina benghalensis: 73%

## CC(C)N(C(=O)COc1nnc(C(F)(F)F)s1)c1ccc(F)cc1 [(B1.13), 4′-fluoro-N-isopropyl-2-(5-trifluoromethyl-1,3,4-thiadiazol-2-yloxy)acetanilide]
Echinochloa crus-galli; 125 g of a.s./ha, application 3-leaf stage, scoring 28 days after application
  Herbicidal action (%) against Echinochloa crus-galli: 25%
Echinochloa crus-galli; 250 g of a.s./ha, application 3-leaf stage, scoring 28 days after application
  Herbicidal action (%) against Echinochloa crus-galli: 30%
Echinochloa crus-galli; 500 g of a.s./ha, application 3-leaf stage, scoring 28 days after application
  Herbicidal action (%) against Echinochloa crus-galli: 55%

## CCOCN(C(=O)CCl)c1c(C)cccc1CC [(B1.4), 2-chloro-N-(ethoxymethyl)-N-(2-ethyl-6-methylphenyl)acetamide]
Echinochloa crus-galli; 375 g of a.s./ha, application 3- to 4-leaf stage, scoring 42 days after application
  Herbicidal action (%) against Echinochloa crus-galli: 10%
Echinochloa crus-galli; 750 g of a.s./ha, application 3- to 4-leaf stage, scoring 42 days after application
  Herbicidal action (%) against Echinochloa crus-galli: 40%
Echinochloa crus-galli; 1500 g of a.s./ha, application 3- to 4-leaf stage, scoring 42 days after application
  Herbicidal action (%) against Echinochloa crus-galli: 45%

## N#Cc1cc(Br)c(O)c(Br)c1 [(B3.1), 3,5-dibromo-4-hydroxybenzonitrile]
Portulaca oleracea; 360 g of a.s./ha, application 2- to 4-leaf stage, scoring 28 days after application
  Herbicidal action (%) against Portulaca oleracea: 25%
Portulaca oleracea; 360 g of a.s./ha, application 6-leaf stage, scoring 26 days after application
  Herbicidal action (%) against Portulaca oleracea: 25%
Avena fatua; 360 g of a.s./ha
  Herbicidal action (%) against Avena fatua: 10%
